# “And” between values parts separate entries of the source, which are not always exact repeats. Identical values can stand only once.
# What was measured:
# zebrafish embryos [1] = experiment: in situ hybridization with krox20/myod probes in treated zebrafish embryos; type: in vivo, zebrafish (Danio rerio); conditions: 750 nM from 6 hpf, fixed at 12 hpf
# Experimental: Embryos were treated from approximately 6 hpf until 12 hpf when they were fixed in 4% paraformaldehyde overnight. In situ hybridization was performed using krox20 and myod anti-sense RNA probes as described elsewhere ([Thisse and Thisse, 2008]).
# zebrafish embryos [2] = experiment: zebrafish embryo assay (morphological developmental defects at 48 hpf); type: in vivo, zebrafish (Danio rerio); conditions: for developmental defects in zebrafish embryos: broad concentration range; for effect on zebrafish embryo development: 20 µM (maximum tested concentration)
# Experimental: Zebrafish eggs obtained from family crosses of Tuebingen long fin zebrafish lines were used to assess the biological activity of all samples. The eggs were washed with fresh E3 medium and subsequently divided over 24-well plates, with ten embryos per well in 1000 µl E3 medium. Samples were added to the wells at various times as mentioned in the figures and legends. At 48 hpf, the zebrafish embryos were inspected for morphological developmental defects. Embryos displaying morphological defects were imaged using a Leica MZFLIII microscope equipped with a Leica DFC320 camera or Leica M165 FC microscope equipped with a Leica DMC5400 camera.
# [3] = tested on: BMP2-induced SMAD1/5 phosphorylation; experiment: BMP2-induced SMAD1/5 phosphorylation in HepG2 cells (immunoblot); type: cell-based, human; conditions: HepG2, BMP2 50 ng/ml, maximum tested concentration of 20 µM
# Experimental: For BMP stimulation, the HepG2 cells (∼50% confluency) were starved on serum-free medium for 6 h. Subsequently, prior to the addition of BMP ligands, the cells were treated with compound for 30 min. Next, the cells were stimulated with BMP2 (50 ng/ml) or BMP6 (50 ng/ml) for 45 min. The cells were then washed with PBS and lysed in Laemmli sample buffer for western blot analysis.
# (§1) HepG2 or HEK 293T cells were lysed in Laemmli sample buffer. Proteins were separated by sodium dodecyl sulfate polyacrylamide gel electrophoresis (SDS-PAGE) and transferred onto […] polyvinylidene difluoride (PVDF) membrane (IPVH00010, Merck Millipore). Membranes were blocked using 5% non-fat dry milk in Tris-buffered saline with 0.1% Tween 20 (655204, Merck Millipore) and probed with the respective primary and secondary antibodies. The signal was detected using Clarity™ Western ECL Substrate (1705060, Bio-Rad) and ChemiDoc Imaging System (17001402, Bio-Rad). The antibodies used for immunoblotting were raised against the following proteins: phospho-SMAD1/5/8 ([Persson et al., 1998]; 1:1000), SMAD1 (Cell Signaling Technology, #6944; 1:1000), GAPDH (Merck Millipore, #G8795; 1:5000) and hemagglutinin (HA; Roche, #12CA5; 1:1000).
# caALK3 = target: T1, caALK3 (Homo sapiens, UniProt P36894, Q233D); experiment: caALK3-induced SMAD1/5 phosphorylation in HEK 293T cells; type: cell-based; conditions: cercosporamide 1-10 µM, LDN193189 200 nM
# T1 construct: expressed in transfected cells; host or cells: HEK 293T
# Excerpt: as §1
# (§2) For experiments with the caALK type I receptor constructs, HEK 293T cells were seeded in 24-well plates at ∼90% confluency and transfected with the DNA expression constructs in the presence of PEI. Thirty hours after transfection, the cells were added to serum-starved medium and treated with compounds for 16 h (overnight). Subsequently, the cells were washed with PBS and lysed in Laemmli sample buffer. […]
# [4] = tested on: BMP2-induced SMAD1/5-dependent BRE-luc transcriptional reporter; experiment: BMP2-induced BRE-luc transcriptional reporter assay in HepG2 cells; type: cell-based, human; conditions: HepG2, BMP2 50 ng/ml; cercosporamide 100 nM to 10 µM, LDN-193189 200 nM
# Experimental: For luciferase transcriptional reporter assays, HepG2 cells were seeded in 9-cm plates at ∼60% confluency and transfected with polyethyleneimine (PEI). Twenty-four hours later, the transfected cells were seeded in 24-well plates at ∼60% confluency. Another 24 h later, the cells were serum starved for 6 h. Subsequently the cells were treated with compound or DMSO for 30 min. Thereafter, the cells were stimulated with BMP2 in the presence of compounds (or DMSO) for 16 h (overnight). Subsequently, the cells were washed with PBS and lysed. Luciferase activity was measured using the luciferase reporter assay system from Promega (Leiden, The Netherlands) by a Perkin Elmer luminometer Victor^3 1420. Each DNA transfection mixture was equalized with empty vector when necessary and every experiment was performed in triplicate. β-galactosidase expression construct was co-transfected and β-galactosidase was measured to normalize for differences in transfection efficiency. The BRE-luc reporter construct has been reported previously ([Korchynskyi and ten Dijke, 2002]).
# caALK2 = target: T2, caALK2 (Homo sapiens, UniProt Q04771, Q207D); experiment: caALK2-induced SMAD1/5 phosphorylation in HEK 293T cells; type: cell-based; conditions: cercosporamide 1-10 µM, LDN193189 200 nM
# T2 construct: expressed in transfected cells; host or cells: HEK 293T
# T2 sequence (Q04771 21-509 Q207D): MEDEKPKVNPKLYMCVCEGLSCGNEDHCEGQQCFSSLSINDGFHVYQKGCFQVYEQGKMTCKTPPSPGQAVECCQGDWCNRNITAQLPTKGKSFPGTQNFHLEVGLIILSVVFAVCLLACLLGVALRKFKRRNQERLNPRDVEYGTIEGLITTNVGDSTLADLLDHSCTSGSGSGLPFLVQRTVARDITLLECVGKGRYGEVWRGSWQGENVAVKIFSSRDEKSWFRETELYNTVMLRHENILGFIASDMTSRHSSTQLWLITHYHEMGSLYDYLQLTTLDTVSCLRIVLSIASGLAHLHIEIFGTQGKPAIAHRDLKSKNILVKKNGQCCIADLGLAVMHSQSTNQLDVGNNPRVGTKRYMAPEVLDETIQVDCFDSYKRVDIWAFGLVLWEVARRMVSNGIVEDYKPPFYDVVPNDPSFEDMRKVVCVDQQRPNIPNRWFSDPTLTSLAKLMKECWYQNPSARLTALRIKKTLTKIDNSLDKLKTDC
# Excerpt: as §1, §2
# caALK6 = experiment: caALK6-induced SMAD1/5 phosphorylation in HEK 293T cells; type: cell-based, human; conditions: cercosporamide 1-10 µM, LDN193189 200 nM
# Excerpt: as §1, §2
# caALK1 = target: T3, caALK1 (Homo sapiens, UniProt P37023, Q201D); experiment: caALK1-induced SMAD1/5 phosphorylation in HEK 293T cells; type: cell-based; conditions: cercosporamide 1-10 µM, LDN193189 200 nM
# T3 construct: expressed in transfected cells; host or cells: HEK 293T
# Excerpt: as §1, §2
# T3 sequence (P37023 22-503 Q201D): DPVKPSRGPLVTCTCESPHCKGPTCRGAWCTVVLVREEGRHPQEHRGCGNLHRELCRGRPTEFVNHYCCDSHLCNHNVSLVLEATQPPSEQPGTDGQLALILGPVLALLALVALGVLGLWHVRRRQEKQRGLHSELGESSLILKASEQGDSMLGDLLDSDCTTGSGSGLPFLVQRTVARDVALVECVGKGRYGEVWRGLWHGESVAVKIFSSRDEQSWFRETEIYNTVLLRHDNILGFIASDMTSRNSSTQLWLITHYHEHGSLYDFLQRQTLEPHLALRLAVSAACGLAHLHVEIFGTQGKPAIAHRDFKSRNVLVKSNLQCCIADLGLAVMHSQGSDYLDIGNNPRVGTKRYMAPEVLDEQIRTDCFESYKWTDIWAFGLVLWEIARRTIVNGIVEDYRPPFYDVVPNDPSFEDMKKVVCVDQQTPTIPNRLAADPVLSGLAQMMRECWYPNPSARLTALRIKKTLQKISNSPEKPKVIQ
# T1 sequence (P36894 24-532 Q233D): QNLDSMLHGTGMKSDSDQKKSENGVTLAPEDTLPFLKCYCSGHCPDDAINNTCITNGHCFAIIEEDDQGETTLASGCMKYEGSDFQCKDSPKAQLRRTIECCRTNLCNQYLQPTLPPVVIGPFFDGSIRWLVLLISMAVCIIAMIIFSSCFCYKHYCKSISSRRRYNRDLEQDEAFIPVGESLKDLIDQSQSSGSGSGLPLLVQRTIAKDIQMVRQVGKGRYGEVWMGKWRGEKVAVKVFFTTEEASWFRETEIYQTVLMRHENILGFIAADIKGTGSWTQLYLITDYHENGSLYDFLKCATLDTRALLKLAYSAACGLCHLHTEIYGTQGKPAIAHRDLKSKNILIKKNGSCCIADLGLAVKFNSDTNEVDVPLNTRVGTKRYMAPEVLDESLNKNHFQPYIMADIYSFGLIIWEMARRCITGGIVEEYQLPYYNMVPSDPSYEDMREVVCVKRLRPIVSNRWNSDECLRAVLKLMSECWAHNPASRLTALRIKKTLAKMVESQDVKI
smiles,measurement,setting,value
CC(C)Oc1ccc(-c2cnc3c(-c4ccnc5ccccc45)cnn3c2)cc1 [DMH-1],krox20 expression pattern,zebrafish embryos [1],induced lateral expression of krox20
same,fraction of embryos showing the pattern,zebrafish embryos [1]; one fraction per depicted pattern,9/13 and 4/13
same,lethality,"zebrafish embryos [2]; 250 nM, treatment from 2 hpf onwards",lethal
same,embryos in which treatment is lethal,"zebrafish embryos [2]; 250 nM, treatment from 4 hpf",50%
same,phenotype,zebrafish embryos [2]; 750 nM,loss of the ventral fin
same,phenotype at 48 hpf,"zebrafish embryos [2]; DMH-1 treatment at 8 hpf (250 nM, Fig. S3)",mild defects
Cc1cccc(-c2nn(C(=S)Nc3ccccc3)cc2-c2ccnc3ccccc23)n1 [A83-01],developmental defects in zebrafish embryos,zebrafish embryos [2],severely curved tail and fused eyes
Cc1cc(Nc2cc(N)ncn2)c(=O)n2c1C(=O)NC21CCCCC1 [eFT508],effect on SMAD1/5 phosphorylation,[3],no effect
same,effect on SMAD1/5 phosphorylation,[3]; listed as eFT 508,did not affect
same,effect on zebrafish embryo development,zebrafish embryos [2],no effect
same,effect on zebrafish embryo development,zebrafish embryos [2]; listed as eFT 508,did not induce developmental
"c1ccc2c(-c3cnn4cc(-c5ccc(N6CCNCC6)cc5)cnc34)ccnc2c1 [LDN-193189, reference compound]",effect on caALK3-induced SMAD1/5 phosphorylation,caALK3,strongly reduced
same,effect on BMP2-induced BRE-luc activity,[4],potent antagonizing effect
same,effect on caALK2-induced SMAD1/5 phosphorylation,caALK2,strongly reduced
same,effect on caALK6-induced SMAD1/5 phosphorylation,caALK6,strongly reduced
same,effect on caALK1-induced SMAD1/5 phosphorylation,caALK1,strongly reduced
same,"developmental defects, single treatment","zebrafish embryos [2]; 5 µM, from 7 hpf onwards",did not induce detectable developmental defects
Cc1cccc(-c2[nH]ncc2-c2ccc3ncccc3n2)n1 [ALK5 kinase inhibitor II],developmental defects in zebrafish embryos,zebrafish embryos [2],severely curved tail and fused eyes
